# Reference: ChEMBL document CHEMBL3507680, “University of Dundee, Gates Library screen for HepG2 cell viability”
# Assay: Human HepG2 cell viability assay in 384 well format
# Type: toxicity, cell-based
# Design: dose 125 nL, time 70.5 hour; concentration not given beside the values
# Settings: HepG2 cells, read-out: Inhibition
row,Structure (SMILES),cytotoxicity at 70.5 h [%]
1,Cc1noc(C)c1C(=O)N1CCC(n2cccn2)CC1,-3.66
2,CC(C)CC(=O)N1Cc2ccccc2CC1C(=O)Nc1nccs1 (stereo unspecified),-8.5
3,Cc1ccc(CSc2nc(N)cc(NCC(=O)N3CCNCC3)n2)cc1,-4.01
4,Cc1cccc(C(=O)N2CCn3cnc(COCC4CC4)c3C2)c1,-5.71
5,Cc1ccc(OCC(O)COC2CCOCC2)c(Cl)c1 (stereo unspecified),-0.327
6,Cc1ccc2[nH]c(CN(C)Cc3ccccc3C(=O)O)nc2c1,-7.29
7,CN1CC2(CCN(C(=O)COc3ccc(Cl)cc3Cl)CC2)OC1=O,14.5
8,CC(C)Oc1cccc(CNC(=O)N2CCC(N3CC=CC3)C2)c1 (stereo unspecified),26.6
9,CCOC(=O)[C@H]1CNC[C@H]1C(=O)OCC,-2.7
10,CCOCCn1nc(C2CCNCC2)n(Cc2ccccc2)c1=O,3.02
11,O=C(O)c1ccccc1-c1ccc(Cn2c(=O)cc[nH]c2=O)cc1,-0.721
12,C[C@@H]1CN(C(=O)c2ccc(C#N)nc2)C[C@@]1(O)C1CC1,13.9
13,c1cn(-c2nccnc2C2CCCN(C3CCOCC3)C2)cn1 (stereo unspecified),-5.56
14,CCOc1ccc(C(=O)N2C[C@H]3CC[C@@H]2CN(C(=O)C2CCC2)C3)cc1,-0.418
15,Cc1cnn(CC2CCN(CC(O)CN3CCC(C)CC3)CC2)c1 (stereo unspecified),-4.29
16,Cc1ccc(CNC(=O)c2nc3c(o2)CN(C(=O)c2cccnc2)C3)o1,-1.67
17,CC(=O)N[C@@H]1CN(C(=O)c2ccoc2)C[C@H]1c1ccc(C)cc1,-13.3
18,Cc1nn(CC(=O)NCC2(C(N)=O)CCOCC2)c(C)c1Cl,-8.87
19,NC1(c2nc(-c3cccs3)cc(=O)[nH]2)CCCCC1,7.44

row,Structure (SMILES),cytotoxicity at 70.5 h [%]
1,CCCN1CCC(CC(=O)NCc2cc(C)nn2C)CC1,-7.34
2,COc1ccc(CNCCc2cccc(C(N)=O)c2)cc1O,-6.24
3,COCCN(Cc1cccc(OCCO)c1)Cc1ccccc1F,-2.88
4,Cc1nc(C)c(CC(=O)N2C[C@@H](C(=O)O)[C@H](c3ccncc3)C2)s1,-0.442
5,CCCS(=O)(=O)N1C[C@@H](c2nc(C)no2)C[C@H]2OCC[C@H]21,-0.391
6,CC(NC(=O)c1cccs1)C(=O)NS(=O)(=O)c1ccc(C#N)cc1 (stereo unspecified),-5.58
7,CN(C)CC(=O)N1CCCCC1c1nc(N)ncc1-c1ccccc1 (stereo unspecified),5.62
8,CC(C)c1cc(NCC2(N(C)C)CCCC2)ncn1,-2.85
9,O=C(N1CCOCC1)[C@@]12CCO[C@@H]1CCN(Cc1ccncc1)C2,-3.44
10,O=C(C1=CCCCC1)N1CCC2(CC1)COC(COc1ccccn1)C2 (stereo unspecified),-3.14
11,O=C1CC2(CCCNC2)C(=O)N1Cc1ccc(Cl)cc1 (stereo unspecified),-15.9
12,Cc1cc(=O)[nH]c(NC2CCN(S(=O)(=O)c3ccccc3)CC2)n1,-2.77
13,CC(C)(C)NC(=O)N1CCN2C(=O)OCC2C1 (stereo unspecified),-3.52
14,CN(C)c1ccc(CN2C[C@H]3CC[C@@H]2CN(C2CCOCC2)C3)cn1,-3.42
15,CCN1CCCC(O)(c2nc(C)c(CCOc3ccccc3Cl)s2)CC1 (stereo unspecified),-7.73
16,O=C(Cn1cnc2cc3c(cc21)OCCCO3)NCCc1ccccc1,0.395
17,CNC(=O)[C@@]12CCC3(CCN(S(=O)(=O)C4CC4)CC3)[C@@H]1CN(C(C)=O)C2,20.2
18,Cn1cc(CN2CCC3(CCN(c4cnn(C)c4)C3=O)C2)cn1 (stereo unspecified),-10.8
19,Cc1ccc(N2CCc3ncc(CNc4ccccn4)n3CC2)nn1,-1.74

row,Structure (SMILES),cytotoxicity at 70.5 h [%]
1,CCN1CCN(C2(C(=O)NC3CCCC3)Cc3ccccc3C2)CC1,-3.96
2,COc1ccc(NC(C)C(=O)N2CCN(c3ncccn3)CC2)cn1 (stereo unspecified),2.09
3,CN(Cc1nnc(C2CC2)n1C)C1CCN(Cc2ccc(F)cc2)C1 (stereo unspecified),-6.24
4,COCCN1CCC2(CC1)CC(N1CCOCC1)c1cc(C)ccc12 (stereo unspecified),4.82
5,Cc1cc(C(=O)N2CCCCC2C)ccc1NC(=O)N1CCOCC1 (stereo unspecified),-6.59
6,CCC(=O)N1CCC(c2nc3ccc(NC(C)C)cn3n2)CC1,4.46
7,NC(=O)c1cnn2c1NCC(CNCC1(c3ccccc3)CCCC1)C2 (stereo unspecified),0.136
8,CCC(O)CN1CCN(C(=O)c2cccn2Cc2cccnc2)CC1 (stereo unspecified),17.3
9,c1csc(CN2Cc3nc(CN4CCCC4)oc3C2)c1,-1.36
10,Cc1cccnc1NCCNC(=O)[C@H]1CNC[C@@H](C(=O)N2CCCC2)C1,0.731
11,Cc1nc(NCc2ccc(C)o2)cc(C2CCNCC2)n1,-23.6
12,CC(C)N1[C@H](CN(C)C)C[C@@H]2CN(c3ncc(F)cn3)CC[C@@H]21,6.71
13,Cc1nn(C)c(C)c1CC(C)NC(=O)NCc1ccoc1C (stereo unspecified),-4.68
14,CC1CN(C)CCN1C(=O)c1ccn(-c2cccc(Cl)c2)n1 (stereo unspecified),-13.2
15,CS(=O)(=O)Nc1cccc(C(=O)Nc2ccc3c(c2)C(=O)NC3)c1,-6.35
16,NC(=O)c1nc2c(s1)CCN(C(=O)Nc1ccccc1)CC2,9.18
17,COc1c(C2CCCN2CC(=O)Nc2nc(C)cs2)c(C)nn1C (stereo unspecified),3.79
18,CNC(=O)c1nc2c(s1)CCN(C(=O)c1ccc(OC)cc1)CC2,-7.87
